Measured values taken from patent publication US9675625B2, “Medicament comprising recombinant antibody against chemokine receptor CCR4” (KYOWA HAKKO KIRIN CO., LTD., priority 2003, dated 2017).
“And” between values parts separate entries of the source, which are not always exact repeats. Equal values may be shown once.

How the values were obtained:
CCRF-CEM cells [1] = assay: antitumor effect of KM 2760 and cyclophosphamide in combination, CCRF-CEM cells grafted in nude mouse; type: in vivo, Balb/c nude mouse; details: Day 4; KM 2760 800 μg per mouse Day 0 and Day 4; CPA 65 mg/kg Day 0; tail vein
Description: CCRF-CEM cells (human T cell leukemia cell line) were suspended in RPMI 1640 medium (Gibco BRL) at a concentration of 2×10^8 cells/mL, and 100 μL of the suspension was grafted intradermally in the right flank of Balb/c nude mice (Nippon Crea, male). On Day 18 after the cell grafting, a diameter of a tumor was measured with calipers, and a tumor volume was calculated using formula 2 in Example 2.
Individuals having the tumor volume within the range of 116 to 349 mm^3 (on average 219 mm^3) were selected, and grouped such that the average tumor volume to be almost the same. Each of the following agent A to D was administered to the mice. Incidentally, the grouping day was defined as Day 0.
The experiment was conducted with groups each consisting of five mice. Each of the agents was diluted with a physiological saline (Otsuka Seiyaku), and the diluent was administered from the tail vein. On Day 4, the tumor volume was measured. The antitumor effect was evaluated by comparing an average values of a tumor volume change (V/V0) on each measurement day when the tumor volume on Day 0 in each group was defined as V0.

CCRF-CEM cells [2] = assay: antitumor effect of KM 2760 and Methotrexate in combination, CCRF-CEM cells grafted in nude mouse; type: in vivo, Balb/c nude mouse; details: Day 7; KM 2760 800 μg per mouse Day 0 and Day 4; MTX 15 mg/kg Day 0 to Day 4; tail vein
Description: CCRF-CEM cells (human T cell leukemia cell line) were suspended in RPMI 1640 medium (Gibco BRL) at a concentration of 2×10^8 cells/mL, and 100 μL of the suspension was grafted into the ventral skin of Balb/c nude mice (CLEA Japan Inc. male). On Day 17 after the cell grafting, a diameter of a tumor was measured with calipers, and a tumor volume was calculated using formula 2 in Example 2.
Individuals having the tumor volume within the range of 121 to 348 mm^3 (on average 195 mm^3) were selected, and grouped such that the average tumor volume to be almost the same. Each of the following agents A to D was administered to the mice. Incidentally, the grouping day was defined as Day 0.
(§1) B. Group of administering KM 2760 alone: 800 μg of KM2760 was administered per mouse on Day 0 and Day 4.
C. Group of administering Methotrexate (hereinafter referred to as MTX; Methotrexate injection solution, Nippon Weisledary K.K.) alone: 15 mg/kg of MTX was administered per mouse for 5 days from Day 0 to Day 4. […]
The experiment was conducted with groups each consisting of five mice. […] On Day 7, the tumor volume was measured. The antitumor effect was evaluated by comparing average values of a tumor volume change (V/V0) when the tumor volume on Day 0 in each group was defined as V0.

CCRF-CEM cells [3] = assay: antitumor effect of KM 2760 and vincristine in combination, CCRF-CEM cells grafted in nude mouse; type: in vivo, Balb/c nude mouse; details: Day 10; KM 2760 800 μg per mouse Day 0 and Day 4; VCR 0.55 mg/kg Day 0; tail vein
CCRF-CEM cells [4] = assay: antitumor effect of KM 2760 and etoposide in combination, CCRF-CEM cells grafted in nude mouse; type: in vivo, Balb/c nude mouse; details: Day 7; KM 2760 800 μg per mouse Day 0 and Day 4; VP-16 10 mg/kg Day 0 to Day 4; tail vein
Description: CCRF-CEM cells (human T cell leukemia cell line) were suspended in RPMI 1640 medium (Gibco BRL) at a concentration of 2×10^8 cells/mL, and 100 μL of the suspension was grafted into the ventral skin of Balb/c nude mice (Nippon Crea, male). On Day 17 after the cell grafting, a diameter of a tumor was measured with calipers, and a tumor volume was calculated using formula 2 in Example 2.
Individuals having the tumor volume within the range of from 121 to 348 mm^3 (on average 195 mm^3) were selected, and grouped such that the average tumor volume to be almost the same. Each of the following agents A to D was then administered to the mice. Incidentally, the grouping day was defined as Day 0.
as §1
C. Group of administering etoposide (hereinafter referred to as VP-16; Lastet injection, Nippon Kayaku Co., Ltd.) alone: 10 mg/kg of VP-16 was administered per mouse for 5 days from Day 0 to Day 4. […]
The experiment was conducted with groups each consisting of five mice. […] On Day 7, the tumor volume was measured. The antitumor effect was evaluated by comparing average values of a tumor volume change (V/V0) on Day 7 when the tumor volume on Day 0 in each group was defined as V0.

CCR4/EL4 cells [5] = assay: antitumor effect of KM 2760 and IFN-α in combination, CCR4/EL4 cells grafted into tail vein of C57BL/6 mice, liver weight ratio; type: in vivo, C57BL/6 mouse
Description: CCR4/EL4 cells were suspended in RPMI 1640 medium (manufactured by Gibco BRL) at a concentration of 5×10^5 cells/mL, and 100 μl of the suspension was grafted into the tail vein of C57BL/6 mice (CLEA Japan Inc., male, 8 weeks old). Further, mice were grouped into A to D, and each of the agents A to D were administered to the mice. Incidentally, the day on which the tumor was grafted was defined as Day 0.
B. Group of administering IFN-α alone: 5×10^4 units of IFN-α (Universal type I interferon, manufactured by PBL Biomedical Laboratories) was intravenously administered per mouse once a day for 5 days from Day 1 to Day 5.
The experiment was conducted with group A consisting of 7 mice and groups B, C and D each consisting of 6 mice. […] The weight of all mice was measured on Day 14. After etherization and exsanguination, mice were brought to euthanasia by dislocation of the cervical spine. The liver was extracted, and the weight of the liver was then measured. A ratio of the liver weight to the weight of each individual (hereinafter referred to as a weight ration of a liver) was calculated by percentage.
The antitumor effect was evaluated by comparing the liver weight ratio (average value of six mice) of untreated healthy mice measured simultaneously and the liver weight ratio of each group increased by metastasis of tumor cells.
Further, the residual amount of tumor cells in the liver in each group was calculated as a T/C value using the following formula. T/C=(average values of a weight ration of a liver of each group−average value of a weight ration of a liver of an untreated mouse)/(average value of a weight ration of a liver of a negative control group−average value of a weight ration of a liver of an untreated mouse) (Formula 4)

CCR4/EL4 cells [6] = assay: antitumor effect of KM 2760 and G-CSF in combination, CCR4/EL4 cells grafted into ventral skin of C57BL/6 mice; type: in vivo, C57BL/6 mouse
Description: CCR4/EL4 cells (WO 01/64754) were suspended, in RPMI 1640 medium (Gibco BRL) at a concentration of 1×10^6 cells/mL, and 100 μL of the suspension was grafted into the right ventral skin of C57BL/6 mice (Nippon Crea, male, 8 weeks old). After, mice were grouped into A to D, each of the agents A to D were administered to each mouse. Incidentally, the day on which the tumor was grafted was defined as Day 0.
B. Group of administering KM 2760 alone: 100 μg of KM2760 was intravenously administered per mouse on Day 0 and Day 4.
C. Group of administering G-CSF alone: 10 μg of G-CSF (Neuup Injection 100, manufactured by Kyowa Hakko Kogyo Co., Ltd.) was subcutaneously administered per mouse once a day for 10 days from 4 days before the tumor grafting (hereinafter referred to as Day-4) to Day 5.
The experiment was conducted with group A consisting of 10 mice and groups B, C and D each consisting of 7 mice. […] Each of the diluent was administered at 100 μL. A diameter of a tumor was measured with calipers chronologically from Day 0 of each group. A tumor volume was calculated using formula 2 in Example 2.
Since the tumor death of the mouse was started in group A from Day 17 on, the evaluation of the tumor volume was finished on Day 14.
The antitumor effect (T/C value) in each group was evaluated by calculation using the following formula 3 for comparison between the average value of the tumor volume in group A and the average values of the tumor volume in each group on the final evaluation day (Day 14). (T/C value)=(average value of tumor volume in each group on Day 14)/average value of tumor volume in group A on Day 14) (Formula 3)

CCR4/EL4 cells [7] = system: CCR4/EL4 cells
Description: CCR4/EL4 cells (WO 01/64754) were suspended in RPMI 1640 medium (manufactured by Gibco BRL) at a concentration of 1×10^5 cells/mL, and 200 μL of the suspension was grafted into the peritoneal cavity of C57BL/6 mice (CLEA Japan Inc., male, 8 weeks old). After, mice was grouped into A to D, and each of the agents A to D was administered to each mouse. The day on which the tumor was grafted was defined as Day 0.
B. Group of administering M-CSF alone: 100 μg of M-CSF (Leucoprol, manufactured by Kyowa Hakko Kogyo Co., Ltd.) was intraperitoneally administered per mouse twice a day from Day-3 to Day-1 and once a day on Day 0, seven times in total.
The experiment was conducted with groups each consisting of 8 mice. […] The antitumor effect was evaluated by a ratio of average values of the number of survival days of mice in each group to an average value of the number of survival days of mice in the negative control group (hereinafter referred to as a life prolongation ratio).

[8] = KM 2760 50 μg i.p. Day 0, M-CSF 100 μg i.p. seven times

## O=P1(N(CCCl)CCCl)NCCCO1 (stereo not drawn) [CPA, cyclophosphamide, reference compound]
CCRF-CEM cells [1]
  T/C (V/V0 of group divided by V/V0 of negative control group): 0.48

## CN(Cc1cnc2nc(N)nc(N)c2n1)c1ccc(C(=O)N[C@@H](CCC(=O)O)C(=O)O)cc1 [MTX, Methotrexate, reference compound]
CCRF-CEM cells [2]
  T/C (V/V0 of group divided by V/V0 of negative control group): 0.06

## CC[C@]1(O)C[C@H]2CN(CCc3c([nH]c4ccccc34)[C@@](C(=O)OC)(c3cc4c(cc3OC)N(C=O)[C@H]3[C@@](O)(C(=O)OC)[C@H](OC(C)=O)[C@]5(CC)C=CCN6CC[C@]43[C@@H]65)C2)C1 [VCR, vincristine, reference compound]
CCRF-CEM cells [3]
  T/C (V/V0 of group divided by V/V0 of negative control group): 0.49

## COc1cc([C@@H]2c3cc4c(cc3[C@@H](O[C@@H]3O[C@@H]5CO[C@@H](C)O[C@H]5[C@H](O)[C@H]3O)[C@H]3COC(=O)[C@H]23)OCO4)cc(OC)c1O [VP-16, etoposide, reference compound]
CCRF-CEM cells [4]
  T/C (V/V0 of group divided by V/V0 of negative control group): 0.71

## IFN-α
CCR4/EL4 cells [5]; Day 14, KM 2760 0.5 μg per mouse i.v. Day 1 and Day 5, IFN-α 5×10^4 units per mouse i.v. Day 1 to Day 5
  T/C value (residual amount of tumor cells in the liver, from liver weight ratio): 0.48
CCR4/EL4 cells [5]; FIG. 7, Day 14
  antitumor effect compared to untreated group A (liver weight ratio): low

B1: G-CSF: G-CSF (Neuup Injection 100, manufactured by Kyowa Hakko Kogyo Co., Ltd.) (protein, UniProt P09919 31-207, looked up)
Granulocyte …: TPLGPASSLPQSFLLKCLEQVRKIQGDGAALQEKLVSECATYKLCHPEELVLLGHSLGIPWAPLSSCPSQALQLAGCLSQLHSGLFLYQGLLQALEGISPELGPTLDTLQLDVADFATTIWQQMEELGMAPALQPTQGAMPAFASAFQRRAGGVLVASHLQSFLEVSYRVLRHLAQP
modifications: nartograstim
CCR4/EL4 cells [6]; Day 14, KM 2760 100 μg per mouse i.v. Day 0 and Day 4, G-CSF 10 μg per mouse s.c. once a day Day-4 to Day 5
  T/C value (average tumor volume of group / group A): 0.63
CCR4/EL4 cells [6]; FIG. 6, up to Day 14
  antitumor effect compared to untreated group A (tumor volume): low

B2: M-CSF: M-CSF (Leucoprol, manufactured by Kyowa Hakko Kogyo Co., Ltd.) (protein, UniProt P09603 33-554, looked up)
Macrophage colony-stimulating …: EEVSEYCSHMIGSGHLQSLQRLIDSQMETSCQITFEFVDQEQLKDPVCYLKKAFLLVQDIMEDTMRFRDNTPNAIAIVQLQELSLRLKSCFTKDYEEHDKACVRTFYETPLQLLEKVKNVFNETKNLLDKDWNIFSKNCNNSFAECSSQDVVTKPDCNCLYPKAIPSSDPASVSPHQPLAPSMAPVAGLTWEDSEGTEGSSLLPGEQPLHTVDPGSAKQRPPRSTCQSFEPPETPVVKDSTIGGSPQPRPSVGAFNPGMEDILDSAMGTNWVPEEASGEASEIPVPQGTELSPSRPGGGSMQTEPARPSNFLSASSPLPASAKGQQPADVTGTALPRVGPVRPTGQDWNHTPQKTDHPSALLRDPPEPGSPRISSLRPQGLSNPSTLSAQPQLSRSHSSGSVLPLGELEGRRSTRDRRSPAEPEGGPASEGAARPLPRFNSVPLTDTGHERQSEGSFSPQLQESVFHLLVPSVILVLLAVGGLLFYRWRRRSHQEPQRADSPLEQPEGSPLTQDDRQVELPV
CCR4/EL4 cells [7]; 8 mice per group, KM 2760 50 μg per mouse i.p. Day 0, M-CSF 100 μg per mouse i.p. seven times Day-3 to Day 0, observation to Day 50
  Number of survival days (each mouse): 17 days (2×) and 18 days (3×) and 19 days (2×) and 22 days
CCR4/EL4 cells [7]; [8]
  Average number of survival days: 18.8 days
  Life prolongation ratio (average survival days of group / negative control group): 0.974
CCR4/EL4 cells [7]; Table 7
  antitumor effect in comparison with untreated Group A (survival): no antitumor effect
